In article PMC3958426, “Prolonged Calcitonin Receptor Signaling by Salmon, but Not Human Calcitonin, Reveals Ligand Bias” (PLoS ONE, 2014):

Assays:
[1] = target: T1, human calcitonin receptor (CT(a)R), U2OS CALCR membranes (Homo sapiens, UniProt P30988); test: Ligand association on isolated U2OS CALCR membranes; assay type: binding; conditions: ^125I ligand 0.25 nM; for association constant KON, membranes: room temperature (∼22°C), 20 mM HEPES, 1 mM CaCl2, 5 mM MgCl2, nonspecific with 250 nM unlabeled sCT, triplicate, mean ± SEM; for time to plateau of specific binding, membranes: ∼22°C
T1 construct: host or cells: U2OS (PathHunter U2OS CALCR β-arrestin cell line)
T1 sequence (P30988 25-474): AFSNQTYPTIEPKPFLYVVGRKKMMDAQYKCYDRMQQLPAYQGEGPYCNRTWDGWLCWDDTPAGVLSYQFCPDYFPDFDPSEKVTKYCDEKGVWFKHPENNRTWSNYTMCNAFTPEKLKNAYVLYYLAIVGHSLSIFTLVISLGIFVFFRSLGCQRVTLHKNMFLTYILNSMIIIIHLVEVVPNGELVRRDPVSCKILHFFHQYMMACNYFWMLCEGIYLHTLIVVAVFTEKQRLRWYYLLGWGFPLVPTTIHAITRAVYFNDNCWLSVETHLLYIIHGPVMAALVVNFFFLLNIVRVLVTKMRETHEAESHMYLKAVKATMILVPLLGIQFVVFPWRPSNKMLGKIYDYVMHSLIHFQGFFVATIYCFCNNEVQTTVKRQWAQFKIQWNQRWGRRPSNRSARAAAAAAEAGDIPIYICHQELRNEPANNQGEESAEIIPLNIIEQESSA
Experimental: The binding kinetics of ^125I-(Tyr 22)-sCT and ^125I-(Tyr 12)-hCT were assessed using isolated membranes from Cos-7 CT(a)R or U2OS CALCR. Concentration of radio-labeled ligand was 0.25 nM unless otherwise specified. Membranes were isolated and purified as previously described. Membrane protein content was determined with a NanoDrop 1000 (Thermo Scientific). In general, radio-labeled ligand and membrane were mixed in binding buffer (20 mM HEPES, 1 mM CaCl2, 5 mM MgCl2) with complete protease inhibitor (11836170001, Roche), each condition in triplicate, in 96-well plates and incubation at room temperature (∼22°C) with shaking. Ligand association: The radio-labeled ligand was incubated with the membrane and the membrane-bound radioactivity was determined as described above at specific time points 2½, 5, 10, 20, 40, 80 and 160 min. Nonspecific binding was determined at each time point with co-incubation of 250 nM unlabeled sCT. Ligand dissociation: The radio-labeled ligand and membrane were incubated for one hour to allow ligand-receptor saturation. Dissociation was monitored following the addition of 250 nM unlabeled sCT to prevent rebinding of dissociated radio-ligand. The membrane-bound radioactivity (total binding) was determined at time 0, 1, 2, 4, 6, 24, 48 and 72 h after the initiation of dissociation. Competitive ligand binding: The radio-labeled ligand and membrane were co-incubated with one of seven different concentrations of corresponding unlabeled ligand (1 μM sCT or hCT with a fivefold dilution row) for one hour. Post incubation sample extraction: The binding mixtures were transferred to 1.5 ml Eppendorf tubes and centrifuged at 17,000 g (4°C for 5 min). Membrane pellets were washed with cold binding buffer, resuspended and then re-centrifuged (17,000 g, 4°C for 5 min).
(§1) Samples, resuspended pellet or solubilized cell membrane, were transferred to borosilicate tubes and bound radioactivity was measured using a 1470 Wallac Wizard Gamma Counter.

[2] = target: T2, human calcitonin receptor (CT(a)R), U2OS CALCR cells (Homo sapiens, UniProt P30988); test: Ligand association on live U2OS CALCR cells; assay type: binding; conditions: 37°C
T2 construct: host or cells: U2OS (PathHunter U2OS CALCR β-arrestin cell line)
T2 sequence (P30988 25-474): T1 sequence (P30988 25-474)
Experimental: 15,000 U2OS CALCR cells/well were seeded into 96 well culture plates the day prior to the experiment. All cell based binding kinetics studies were made identical in terms of ‘hot’ and ‘cold’ ligand concentrations and incubation times to match membrane studies. Post incubation sample extraction: The binding mixture and cells were mixed in culture medium in triplicates in 96-well plates and incubated at 37°C. At the end of the incubation, the binding mixture was removed and cells were washed three times in PBS to remove residual unbound ligand. 200 μL 0.5 M NaOH was added to each well and cells were allowed to solubilize for at least 20 min.
as §1

[3] = tested on: CT(a)R; conditions: live cells; cited from earlier work
Source text: The calcitonins (CT) are a group of evolutionary conserved 32 amino acid peptide hormones, which have been isolated from many different species over the last 50 years and divided into several distinct groups based on structure and sequence. The calcitonins bind to the calcitonin receptor (CT(a)R), which belongs to the class B subfamily of G-protein coupled receptors (GPCRs), [3]. […] […].

[4] = cited from earlier work
Source text: (§2) The calcitonins (CT) are a group of evolutionary conserved 32 amino acid peptide hormones, which have been isolated from many different species over the last 50 years and divided into several distinct groups based on structure and sequence. The calcitonins bind to the calcitonin receptor (CT(a)R), which belongs to the class B subfamily of G-protein coupled receptors (GPCRs), [3].

[5] = tested on: amylin receptor (AMY-R); conditions: isolated membranes; cited from earlier work
Source text: as §2

association constant KON, membranes [1]	time to plateau of specific binding, membranes [1]	peak binding, live cells, ^125I-hCT vs ^125I-sCT [2]	time to plateau of specific binding, live cells ([2]; ^125I ligand 0.25 nM)	association constant KON, live cells ([2]; ^125I ligand 0.25 nM, triplicate, mean ± SEM)	specific binding after 180 min compared to 20 min, live cells ([2]; ^125I ligand 0.25 nM)	time of maximal specific binding, live cells ([2]; ^125I ligand 0.25 nM)	Substance	reversibility of binding [3]	duration of biological activity in vivo [4]	dissociation from the amylin receptor [5]
3.1±0.5×10^9 M^−1min^−1	~8 min	similar	180 min	1.1±0.1×10^8 M^−1min^−1	–	–	^125I-(Tyr22)-sCT [^125I-sCT]	–	–	–
2.1±0.3×10^9 M^−1min^−1	~8 min	similar	–	–	< 20%	20 min	^125I-(Tyr12)-hCT [^125I-hCT]	fully reversible	–	–
–	–	–	–	–	–	–	davalintide	–	prolonged biological activity in vivo	dissociated very slowly
–	–	–	–	–	–	–	amylin (KCNTATCATQRLANFLVHSSNNFGAILSSTNVGSNTY; Islet amyloid polypeptide; UniProt P10997 34-70, looked up)	–	–	fully reversible
